Results: ChEMBL document CHEMBL3045664, “Docking study on trametenolic acid B as a -glucosidase inhibitor” (Med Chem Res, 2012)

Target: Alpha-glucosidase MAL62 (Saccharomyces cerevisiae, UniProt P07265)
Test: Inhibition of Saccharomyces cerevisiae (baker's yeast) alpha-glucosidase using p-nitrophenyl glucopyranoside as substrate preincubated for 30 min before substrate addition measured after 1 hr by spectrophotometric analysis

Sequence of Alpha-glucosidase MAL62 (P07265 whole entry): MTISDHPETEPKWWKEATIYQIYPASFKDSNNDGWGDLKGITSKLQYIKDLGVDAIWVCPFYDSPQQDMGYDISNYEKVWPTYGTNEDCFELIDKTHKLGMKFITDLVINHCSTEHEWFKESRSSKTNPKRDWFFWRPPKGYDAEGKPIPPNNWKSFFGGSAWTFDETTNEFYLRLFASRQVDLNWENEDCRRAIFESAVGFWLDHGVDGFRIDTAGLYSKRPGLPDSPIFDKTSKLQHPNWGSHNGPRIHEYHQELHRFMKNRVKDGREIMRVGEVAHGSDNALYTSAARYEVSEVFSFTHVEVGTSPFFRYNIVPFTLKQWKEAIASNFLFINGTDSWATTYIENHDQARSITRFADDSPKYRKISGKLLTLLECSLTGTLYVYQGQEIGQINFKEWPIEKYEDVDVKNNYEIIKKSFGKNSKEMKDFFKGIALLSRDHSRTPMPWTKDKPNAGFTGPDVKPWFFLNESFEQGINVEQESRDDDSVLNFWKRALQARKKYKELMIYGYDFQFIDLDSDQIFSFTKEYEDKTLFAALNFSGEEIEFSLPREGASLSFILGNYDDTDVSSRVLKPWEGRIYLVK

## CC(C)=CCC[C@@H](C(=O)O)[C@H]1CC[C@@]2(C)C3=C(CC[C@]12C)[C@@]1(C)CC[C@H](O)C(C)(C)[C@@H]1CC3 [TRAMETENOLIC ACID]
  IC50: 17.1 µM
